The source of these data is patent publication US11572372B2, “Anti-HBVtetrahydroisoxazolo[4,3-c]pyridine compounds” (CHIA TAI TIANQING PHARMACEUTICAL GROUP CO., LTD., priority 2017, dated 2023).

Series [1] relates to HBV DNA in HepG2.2.15 cells. Briefly: In vitro anti-HBV activity assay (HBV DNA in HepG2.2.15 supernatant, qPCR). As to conditions: Hepatitis B virus, HepG2.2.15, 192 h; inhibition of HBV DNA in supernatant, 8 days culture. The series is classed as cell-based. As to the method:
1) 100 μL of HepG2.2.15 cells were seeded at a number of 1.2×10^5 cells per well into a 96-well cell culture plate, and then the cells were cultured in a 37° C. incubator with 5% carbon dioxide (CO2) overnight. On day 2, the compounds to be tested were diluted with DMSO in 3-fold gradient to eight concentrations in total. Then the compounds were diluted 100-fold with culture medium, and 100 μL of the diluted compounds were taken and added to the cell-containing plate in a final volume of 200 μL, and the final concentration of DMSO was 0.5%, and two duplicate wells were used. The cells were cultured in a 37° C. incubator with 5% CO2 for 3 days. On day 5, the solutions in the cell culture plate were replaced with fresh culture medium containing the same concentrations of compounds. When culture was performed for 8 days, cell culture plate supernatant was collected for the extraction of HBV DNA.
2) Detection of HBV DNA by real-time quantitative PCR: the total DNA in the supernatant was extracted with QIAamp 96 DNA Blood Kit, and the content of HBV DNA was detected by quantitative PCR using HBV specific primers and probes. 20 μL PCR pre-mixed solution and 5 μL HBV DNA sample or HBV plasmid standard sample were added to a quantitative PCR plate for reaction. The HBV plasmid standard sample was diluted in 10-fold gradient to seven concentrations from 10^7 to 10 copies/μL. The quantitative PCR reaction procedure was as follows: pre-denaturation at 95° C. for 10 minutes; denaturation at 95° C. for 15 seconds, reaction at 60° C. for 1 minute, and this cycle was repeated 40 times. The inhibition rate of each well against HBV DNA was calculated according to the following equation, and the inhibition rate data of the compounds were subjected to a non-linear fitting analysis using GraphPad Prism software to obtain EC50 values of the compounds. HBV DNA inhibition rate %=(1−copy number of HBV DNA of the sample/copy number of HBV DNA of DMSO control)*100% The assay results are shown in Table 1 below.

Series [2] can be described thus: Pharmacokinetic study for mouse (single intravenous or gavage administration). The series is classed as in vivo, mice. As to conditions: for clearance / half-life / AUC(0-t) / Vd / Cmax / Tmax: plasma; for AUC(0-t): read-out: AUC0-24 h; for Vd: read-out: Vdss. As to the method:
This experiment aims to evaluate the pharmacokinetic behavior of the compounds after a single intravenous or gavage administration in mice. As for the intravenous administration, the compounds were formulated into 0.5 mg/mL clear solutions, vehicle: 5% DMSO/5% 12-hydroxy stearate (solutol)/90% water; as for the gavage administration, the compounds were formulated into 2 mg/mL suspensions, vehicle: 0.5% sodium carboxymethylcellulose/0.2% Tween 80/99.3% water.
The concentrations of the compounds in plasma were determined by high-performance liquid chromatography-tandem mass spectrometry (LC-MS/MS). The retention time, chromatogram acquisition and integration of the chromatograms of the compounds and the internal standard (diclofenac) were processed using the software Analyst (Applied Biosystems), and data statistics were processed using the software Watson LIMS (Thermo Fisher Scientific) or Analyst (Applied Biosystems). The concentration unit of the analyte in the sample is ng/mL, 3 significant digits were retained, and all the values represented by percentages (e.g., % deviation and % coefficient of variation, etc.) have one decimal place. Each calibration curve contains at least 6 concentration levels. The calibration standard samples were formulated using stock solutions from different sources from the quality control samples. If the deviation between the calculated concentration of a calibration standard sample and the indicated value exceeds ±15.0% (the lower limit of quantitation exceeds ±20.0%), such standard sample should be excluded in regression analysis. The excluded calibration standard samples should be less than 25%, and each calibration curve contains at least 6 calibration standard samples that meet the acceptable standard. If the calibration standard samples at the lower and upper limits of quantification need to be excluded, the upper and lower limits of quantification of this batch of analytes will be increased and decreased accordingly.
Plasma concentrations were processed using a non-compartmental model of the WinNonlin™ Version 6.3 (Pharsight, Mountain View, Calif.) pharmacokinetic software, and pharmacokinetic parameters were calculated using the linear logarithmic trapezoidal method. The pharmacokinetic parameters to be calculated include, but are not limited to (if the data is not allowed), T1/2, Vdss, CL, AUC0-24h of the intravenous group; Cmax, Tmax, AUC0-24h and bioavailability (F %) of the oral gavage group.

A further series concerns HBV. Briefly: In vivo activity assay of HBV DNA in mouse plasmid model of tail vein high-pressure injection (Example 23). On the set-up: species or system female BABL/c mice. As to conditions: 60 mg/Kg, gavage. As to the method: The purpose of this study was to test the inhibitory effect of the compound (Example 23) against HBV in mice through a mouse model of high-pressure tail vein injection. In this experiment, female BABL/c mice were used, and the mice were 6-7 weeks old. The HBV plasmid DNA was extracted by using pAAV2-HBV 1.3 mer with Qiagen EndoFree Plasmid Giga kit at a concentration of 1000 ng/μL. The resulting solution was diluted with normal saline before use and stored at 4° C. until use.

Like-named read-outs stand apart in the source and are kept apart here.

The term EC50 denotes the concentration giving half of the maximal effect. What is called half-life is the time in which the quantity being followed falls by half. High values mean slow decline, low ones rapid decline. Broadly, the Cmax is the peak of the concentration-time curve. By Tmax is commonly meant the time from dosing to the highest level.

Regarding `C[C@H]1Cc2noc(-c3ccc(F)cn3)c2CN1C(=O)Nc1cc(F)c(F)c(F)c1` [Example 1], the response in series [1] was half-maximal at 5.3 nM (EC50). Moreover, in series [2] (oral gavage, 10 mg/Kg), the F is on record as 76.1%, the Cmax is 4.26 µM, the Tmax came to 1 h and the AUC(0-t) was found to be 47.2 µM·h. In addition, in series [2] (intravenous injection, 1 mg/Kg), the clearance was determined as 5.8 mL/min/kg, the half-life was 5.62 h, the AUC(0-t) is 6.71 µM·h and the Vd was 2.77 L/kg.
In series [1], `C[C@H]1Cc2noc(-c3ccccc3)c2CN1C(=O)Nc1cc(F)c(F)c(F)c1` [Example 2] showed a concentration giving a half-maximal response (EC50) of 29.3 nM.
In series [1], `C[C@H]1Cc2noc(-c3ccccc3F)c2CN1C(=O)Nc1cc(F)c(F)c(F)c1` [Example 3] returned an EC50 of 9 nM.
The same measure, in the same setting: the result for `C[C@H]1Cc2noc(-c3ccc(F)cc3)c2CN1C(=O)Nc1cc(F)c(F)c(F)c1` [Example 5] reads 24.7 nM.
Same read-out and setting: then `COc1cccc(-c2onc3c2CN(C(=O)Nc2cc(F)c(F)c(F)c2)[C@@H](C)C3)c1` [Example 8], with 37.3 nM; and `COc1ccc(-c2onc3c2CN(C(=O)Nc2cc(F)c(F)c(F)c2)[C@@H](C)C3)cc1` [Example 9], with 10.5 nM; and `C[C@H]1Cc2noc(-c3ccc(Cl)cc3)c2CN1C(=O)Nc1cc(F)c(F)c(F)c1` [Example 12], with 68.8 nM.
In turn, `C[C@H]1Cc2noc(-c3cnccn3)c2CN1C(=O)Nc1cc(F)c(F)c(F)c1` [Example 13] showed an EC50 in series [1] of 58.9 nM.
Still for that read-out and setting: then `C[C@H]1Cc2noc(-c3cscn3)c2CN1C(=O)Nc1cc(F)c(F)c(F)c1` [Example 15], with 6.7 nM.
On the same count and under the same terms, the result for `C[C@H]1Cc2noc(-c3nccs3)c2CN1C(=O)Nc1cc(F)c(F)c(F)c1` [Example 16] reads 24.6 nM; that for `C[C@H]1Cc2noc(-c3ccsn3)c2CN1C(=O)Nc1cc(F)c(F)c(F)c1` [Example 18], 12.2 nM.
Same read-out and setting: the result for `C[C@H]1Cc2noc(-c3ccc(F)cc3F)c2CN1C(=O)Nc1ccc(F)c(C#N)c1` [Example 19] reads 10.4 nM.
`C[C@H]1Cc2noc(-c3ccc(F)cc3F)c2CN1C(=O)Nc1ccc(F)c(Cl)c1` [Example 20]: in series [1], the response was half-maximal at 8.66 nM (EC50).
Still for that read-out and setting: the result for `Cc1cc(NC(=O)N2Cc3c(noc3-c3ccc(F)cc3F)C[C@@H]2C)ccc1F` [Example 21] reads 5.58 nM; that for `C[C@H]1Cc2noc(-c3ccc(F)cc3F)c2CN1C(=O)Nc1ccnc(Cl)c1` [Example 22], 35.2 nM.
Turning to `C[C@H]1Cc2noc(-c3ncccn3)c2CN1C(=O)Nc1ccc(F)c(C#N)c1` [Example 23], the “Log HBV DNA mean value” in the series on HBV (liver tissue after 7 days of administration, BID, solvent control 6.01) came out at 4.50 copy number/μL; in the series on HBV (liver tissue after 7 days of administration, QD, solvent control 6.01) it was 5.18 copy number/μL; in the series on HBV (plasma, Day 1, BID, solvent control 2.03) it was 1.94 copy number/μL; with HBV (plasma, Day 1, QD, solvent control 2.03) it was 2.10 copy number/μL; in the series on HBV (plasma, Day 3, BID, solvent control 4.47), 3.02 copy number/μL; in the series on HBV (plasma, Day 3, QD, solvent control 4.47), 3.15 copy number/μL. In addition, the “Log HBV DNA mean value” turned out to be 2.94 copy number/μL with HBV (plasma, Day 5, BID, solvent control 4.76); 3.92 copy number/μL in the series on HBV (plasma, Day 5, QD, solvent control 4.76); 2.14 copy number/μL in the series on HBV (plasma, Day 7, BID, solvent control 3.53); 3.19 copy number/μL in the series with HBV (plasma, Day 7, QD, solvent control 3.53). Besides, the midpoint of the response in series [1], the EC50, lay at 25.4 nM. Besides, the F in series [2] (oral gavage, 3 mg/Kg) is reported as 55.3%. This molecule also registered a clearance in series [2] (intravenous injection, 1 mg/Kg) of 4.36 mL/min/kg. In addition, in series [2] (intravenous injection, 1 mg/Kg), the half-life was 3.03 h. Also, the AUC(0-t) in series [2] (intravenous injection, 1 mg/Kg) worked out at 10 µM·h; in series [2] (oral gavage, 3 mg/Kg), 16.7 µM·h. Besides, the Vd in series [2] (intravenous injection, 1 mg/Kg) stood at 1.09 L/kg. In series [2] (oral gavage, 3 mg/Kg), this molecule gave a Cmax of 3.4 µM. For the same molecule, the Tmax in series [2] (oral gavage, 3 mg/Kg) came to 0.5 h.
`C[C@H]1Cc2noc(-c3ncccn3)c2CN1C(=O)Nc1ccc(F)c(Cl)c1` [Example 24]: in series [1], the EC50 amounted to 15.6 nM.
For the molecule `C[C@H]1Cc2noc(-c3ncccn3)c2CN1C(=O)Nc1cc(F)c(F)c(F)c1` [Example 25], in series [1], the EC50 came out at 14.9 nM.
Still for that read-out and setting: then `C[C@H]1Cc2noc(-c3ncccn3)c2CN1C(=O)Nc1ccc(F)c(F)c1` [Example 26], with 19.1 nM.
